# Assay results from ChEMBL document CHEMBL1126986, “Nonsteroidal inhibitors of human type I steroid 5-alpha-reductase” (J Med Chem, 1993).
# Columns and labels:
# [1] = molecular target: T1, 3-oxo-5-alpha-steroid 4-dehydrogenase 1 (Homo sapiens, UniProt P18405); test: In vitro inhibition of DHT production in Hs 68 (human genital fibroblast) cells.
# T1 sequence (P18405 whole entry): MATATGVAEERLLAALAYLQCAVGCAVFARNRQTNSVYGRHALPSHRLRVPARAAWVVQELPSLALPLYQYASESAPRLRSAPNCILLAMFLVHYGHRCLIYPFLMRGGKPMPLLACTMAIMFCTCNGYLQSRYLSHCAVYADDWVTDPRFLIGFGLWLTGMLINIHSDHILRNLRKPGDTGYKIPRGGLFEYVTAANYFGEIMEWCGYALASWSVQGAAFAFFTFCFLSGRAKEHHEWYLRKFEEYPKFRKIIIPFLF
# [2] = molecular target: T2, 3-oxo-5-alpha-steroid 4-dehydrogenase 2 (Homo sapiens, UniProt P31213); test: Compound was tested for inhibition of Type II 5-alpha-reductase in Human Prostate Homogenates (HPH)
# T2 sequence (P31213 whole entry): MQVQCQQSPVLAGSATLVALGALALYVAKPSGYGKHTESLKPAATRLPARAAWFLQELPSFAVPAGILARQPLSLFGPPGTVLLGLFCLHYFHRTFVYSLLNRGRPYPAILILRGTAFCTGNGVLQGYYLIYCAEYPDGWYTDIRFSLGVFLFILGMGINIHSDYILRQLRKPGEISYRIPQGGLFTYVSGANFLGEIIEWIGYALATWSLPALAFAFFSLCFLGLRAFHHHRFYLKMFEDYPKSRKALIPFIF
# [3] = molecular target: T1, 3-oxo-5-alpha-steroid 4-dehydrogenase 1; test: Compound was tested for inhibition of Type I 5-alpha-reductase in Human genital skin (Hs68) foreskin fibroblast cells.; type: cell-based
Compound,IC50 [1],IC50 [2],IC50 [3]
CC(C)(C)NC(=O)[C@H]1CC[C@H]2[C@@H]3CC=C4C=C(C(=O)O)CC[C@]4(C)[C@H]3CC[C@]12C [EPRISTERIDE],7500 nM,8 nM,
O=C1CCC2=C(CCc3c(F)cccc32)N1,3200 nM,,
CN1C(=O)CC[C@]2(C)c3ccc(Cl)cc3CC[C@@H]12,17 nM,,
C[C@]12CCC(=O)N[C@@H]1CCc1cc(Cl)ccc12,1800 nM,,
O=C1CCC2=C(CCc3cc(F)ccc32)N1,600 nM,,
Cc1ccc2c(c1)CC[C@@H]1[C@@H]2CCC(=O)N1C,11 nM,,
CN1C(=O)CC[C@@H]2c3ccc(F)cc3CC[C@@H]21,320 nM,,
O=C1CCC2=C(CCc3cccc(F)c32)N1,10000 nM,,
CN1C(=O)CCC2(C)C1=CCc1cc(Cl)ccc12 (stereo not drawn),120 nM,,
CN1C(=O)CC[C@@H]2c3ccc(F)cc3CC[C@H]21,35 nM,,
CN1C(=O)CC[C@@H]2c3ccc(Cl)cc3CC[C@@H]21,41 nM,,
O=C1CC[C@@H]2c3ccc(Cl)cc3CC[C@H]2N1,60 nM,,
O=C1CCC2=C(CCc3ccccc32)N1,6500 nM,,
COc1ccc2c(c1)CC[C@@H]1[C@@H]2CCC(=O)N1C,120 nM,,
O=C1CCC2=C(CCc3ccc(F)cc32)N1,2300 nM,,
CC(C)(C)NC(=O)[C@H]1CC[C@H]2[C@@H]3CC[C@H]4NC(=O)C=C[C@]4(C)[C@H]3CC[C@]12C [FINASTERIDE],,,62 nM
CC12CCC(=O)NC1=CCc1cc(Cl)ccc12 (stereo not drawn),3600 nM,,
CN1C(=O)CCC2=C1CCc1cc(Cl)ccc12,30 nM,,
CN1C(=O)CC[C@@H]2c3ccccc3CC[C@H]21,560 nM,,
O=C1CCC2=C(CCc3cc(Cl)ccc32)N1,460 nM,,
CN1C(=O)CC[C@@H]2c3ccc(Cl)cc3CC[C@H]21 [BEXLOSTERIDE],8 nM,> 10000 nM,
